Laboratory results taken from patent US20140135310A1, “SULPHONAMIDE DERIVATIVES OF ALICYCLIC AMINES FOR THE TREATMENT OF CENTRAL NERVOUS SYSTEM DISEASES” (Adamed Sp. z o.o., priority 2011, published 2014).

What was measured:
[1] = biological target: dopaminergic receptors D2 (Homo sapiens, UniProt P14416); experiment: Radioligand binding assay, dopaminergic D2 receptors; details: binding assay, test compound 1×10^−6 M
In short: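 Values derive from competition curves: percent inhibition of control specific binding was fitted by Hill non-linear regression for IC50, and Ki calculated with Cheng–Prusoff from radioligand concentration and KD (Scatchard). Bound ligand was detected by scintillation counting.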

[2] = biological target: dopaminergic receptors D3 (Homo sapiens, UniProt P35462); experiment: Radioligand binding assay, dopaminergic D3 receptors; details: test compound 1×10^−6 M
dopaminergic receptors D3, sequence (P35462 whole entry): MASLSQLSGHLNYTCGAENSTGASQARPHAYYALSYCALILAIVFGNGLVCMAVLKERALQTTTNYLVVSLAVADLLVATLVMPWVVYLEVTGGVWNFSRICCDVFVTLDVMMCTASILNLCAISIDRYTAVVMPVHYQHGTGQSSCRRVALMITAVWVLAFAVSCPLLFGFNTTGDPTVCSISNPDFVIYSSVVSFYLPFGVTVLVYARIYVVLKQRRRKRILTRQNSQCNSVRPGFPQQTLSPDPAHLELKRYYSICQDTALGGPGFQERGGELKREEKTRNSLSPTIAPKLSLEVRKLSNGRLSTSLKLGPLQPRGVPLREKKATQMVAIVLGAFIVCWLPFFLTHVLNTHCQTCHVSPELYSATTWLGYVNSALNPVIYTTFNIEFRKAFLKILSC
In short: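 Scintillation read-out. Specific = total − nonspecific (excess cold ligand). Data as % of control specific binding / % inhibition; IC50 by Hill fit; Ki = IC50/(1+L/KD), KD from Scatchard plot.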

[3] = biological target: T1, 5-HT1A receptor (rat hippocampus) (Rattus norvegicus, UniProt P19327); experiment: Radioligand binding assay, serotoninergic 5-HT1A receptors; details: binding assay result in %, Table 5a;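 further: test compound at 1 µM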
T1 construct: hippocampus; from tissue; host or cells: rat hippocampus
T1 sequence (P19327 1-422): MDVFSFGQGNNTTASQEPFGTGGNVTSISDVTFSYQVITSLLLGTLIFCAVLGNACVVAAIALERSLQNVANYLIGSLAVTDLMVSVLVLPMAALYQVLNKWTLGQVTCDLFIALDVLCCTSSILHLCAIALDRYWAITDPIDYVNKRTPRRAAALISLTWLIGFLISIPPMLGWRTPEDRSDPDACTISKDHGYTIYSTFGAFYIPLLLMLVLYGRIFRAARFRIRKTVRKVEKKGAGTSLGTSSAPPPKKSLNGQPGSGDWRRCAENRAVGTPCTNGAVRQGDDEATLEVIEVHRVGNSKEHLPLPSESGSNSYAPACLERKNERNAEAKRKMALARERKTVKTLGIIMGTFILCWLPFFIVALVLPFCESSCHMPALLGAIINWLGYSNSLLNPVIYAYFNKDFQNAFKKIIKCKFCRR

[4] = biological target: T2, 5-HT2A receptor (Homo sapiens, UniProt P28223); experiment: Radioligand binding assay, serotoninergic 5-HT2A receptors; details: binding assay result in %, Table 5a
T2 construct: purchased PerkinElmer
T2 sequence (P28223 whole entry): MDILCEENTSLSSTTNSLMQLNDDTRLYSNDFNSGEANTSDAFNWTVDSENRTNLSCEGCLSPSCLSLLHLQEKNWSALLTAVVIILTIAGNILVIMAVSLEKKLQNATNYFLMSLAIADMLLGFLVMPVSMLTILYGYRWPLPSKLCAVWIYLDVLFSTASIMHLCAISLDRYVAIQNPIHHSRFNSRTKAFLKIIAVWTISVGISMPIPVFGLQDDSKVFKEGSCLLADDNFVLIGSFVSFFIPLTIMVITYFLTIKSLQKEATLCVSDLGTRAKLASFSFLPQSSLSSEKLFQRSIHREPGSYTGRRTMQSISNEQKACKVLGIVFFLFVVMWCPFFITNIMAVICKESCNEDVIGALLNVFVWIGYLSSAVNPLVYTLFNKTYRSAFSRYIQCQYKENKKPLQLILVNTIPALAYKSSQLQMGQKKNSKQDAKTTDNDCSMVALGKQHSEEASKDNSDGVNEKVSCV
In short: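 Competition curves from scintillation-counted specific binding (total minus binding with excess unlabelled ligand) were Hill-fitted to give IC50, converted to Ki via Cheng-Prusoff using Scatchard-derived Kd.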

[5] = biological target: T3, 5-HT6 receptor (Homo sapiens, UniProt P50406); experiment: Radioligand binding assay, serotoninergic 5-HT6 receptors; details: binding assay result in %, Table 5a;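 further: test compound at 1 µM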
T3 construct: purchased PerkinElmer
T3 sequence (P50406 whole entry): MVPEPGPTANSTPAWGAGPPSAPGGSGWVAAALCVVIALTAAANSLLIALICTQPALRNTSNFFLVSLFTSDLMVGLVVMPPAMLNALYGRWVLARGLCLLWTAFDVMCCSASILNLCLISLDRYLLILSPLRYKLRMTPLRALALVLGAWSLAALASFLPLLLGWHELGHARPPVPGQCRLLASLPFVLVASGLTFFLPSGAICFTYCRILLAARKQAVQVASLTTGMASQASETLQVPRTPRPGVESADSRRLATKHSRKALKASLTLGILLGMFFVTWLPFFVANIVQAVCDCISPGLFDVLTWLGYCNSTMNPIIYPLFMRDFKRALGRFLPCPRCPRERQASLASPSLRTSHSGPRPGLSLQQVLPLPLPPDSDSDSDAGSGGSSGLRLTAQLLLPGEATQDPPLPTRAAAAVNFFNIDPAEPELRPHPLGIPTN
In short: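 Values are Ki from Cheng–Prusoff, taking IC50 from Hill nonlinear regression of competition curves and KD from a Scatchard plot. Specific binding was total minus binding with excess unlabelled ligand. Radioligand displacement was detected by scintillation counting, and data were also reported as percent of control specific binding.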

[6] = biological target: T4, 5-HT7 receptor (Homo sapiens, UniProt P34969); experiment: Radioligand binding assay, serotoninergic 5-HT7 receptors; details: binding assay result in %, Table 5a;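 further: test compound at 1 µM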
T4 construct: purchased PerkinElmer
T4 sequence (P34969 whole entry): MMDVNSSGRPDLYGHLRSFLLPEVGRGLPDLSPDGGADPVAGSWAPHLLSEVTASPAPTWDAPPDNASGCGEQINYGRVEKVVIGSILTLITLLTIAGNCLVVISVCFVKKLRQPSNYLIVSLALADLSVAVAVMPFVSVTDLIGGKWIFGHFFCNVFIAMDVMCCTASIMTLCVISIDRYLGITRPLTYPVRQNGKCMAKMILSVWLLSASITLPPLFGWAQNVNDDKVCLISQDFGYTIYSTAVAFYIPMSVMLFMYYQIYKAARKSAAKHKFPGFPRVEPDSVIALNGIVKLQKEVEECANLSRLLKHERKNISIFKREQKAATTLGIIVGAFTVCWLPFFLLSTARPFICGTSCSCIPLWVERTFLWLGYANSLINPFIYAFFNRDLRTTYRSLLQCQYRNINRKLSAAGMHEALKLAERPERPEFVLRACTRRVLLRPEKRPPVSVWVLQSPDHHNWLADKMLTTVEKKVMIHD
In short: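 Ki values used the Cheng–Prusoff equation, with KD from Scatchard analysis, applied to IC50 from Hill fits of human 5-HT7 radioligand competition curves. Bound radioligand was counted by scintillation, and excess unlabelled ligand set the non-specific binding.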

[7] = test system: α1 adrenergic receptors (rat cerebral cortex); experiment: Radioligand binding assay, adrenergic α1 receptors; details: test compound 1×10^−6 M
In short: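 Values derive from radioligand displacement, with non-specific binding defined by excess cold ligand and detection by scintillation. Hill-fit IC50s were converted to Ki via Cheng-Prusoff using Scatchard-derived Kd; percent inhibition of control specific binding also reported.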

[8] = biological target: T5, serotonin transporter (SERT) (Homo sapiens, UniProt P31645); experiment: Radioligand binding assay, serotonin transporter (SERT); details: binding assay, test compound 1×10^−6 M
T5 construct: expressed in transfected cells; host or cells: CHO cells
T5 sequence (P31645 whole entry): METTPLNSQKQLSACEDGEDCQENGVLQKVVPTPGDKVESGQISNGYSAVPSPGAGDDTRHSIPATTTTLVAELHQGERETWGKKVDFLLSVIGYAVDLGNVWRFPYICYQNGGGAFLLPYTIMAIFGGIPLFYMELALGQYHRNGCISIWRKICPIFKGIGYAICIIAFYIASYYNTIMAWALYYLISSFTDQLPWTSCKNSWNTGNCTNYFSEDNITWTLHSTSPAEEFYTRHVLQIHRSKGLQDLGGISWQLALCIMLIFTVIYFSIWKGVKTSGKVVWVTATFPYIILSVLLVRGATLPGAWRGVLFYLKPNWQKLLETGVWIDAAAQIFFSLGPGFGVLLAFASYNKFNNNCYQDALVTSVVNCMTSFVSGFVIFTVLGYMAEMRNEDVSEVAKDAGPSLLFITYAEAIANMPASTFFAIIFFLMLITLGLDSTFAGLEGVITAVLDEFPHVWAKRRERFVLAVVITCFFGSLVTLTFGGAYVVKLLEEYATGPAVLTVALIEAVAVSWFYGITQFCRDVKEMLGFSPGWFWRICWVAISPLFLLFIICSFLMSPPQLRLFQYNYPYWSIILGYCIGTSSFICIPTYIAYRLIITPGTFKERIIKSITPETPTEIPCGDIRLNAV
In short: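 Values are derived from competition curves fitted by the Hill equation to give IC50, then converted to Ki by Cheng-Prusoff with radioligand Kd from Scatchard analysis. Specific binding equals total minus non-specific (excess cold ligand), counted by scintillation, and is also expressed as percent inhibition of control.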

dopaminergic receptors D2, sequence (P14416 whole entry): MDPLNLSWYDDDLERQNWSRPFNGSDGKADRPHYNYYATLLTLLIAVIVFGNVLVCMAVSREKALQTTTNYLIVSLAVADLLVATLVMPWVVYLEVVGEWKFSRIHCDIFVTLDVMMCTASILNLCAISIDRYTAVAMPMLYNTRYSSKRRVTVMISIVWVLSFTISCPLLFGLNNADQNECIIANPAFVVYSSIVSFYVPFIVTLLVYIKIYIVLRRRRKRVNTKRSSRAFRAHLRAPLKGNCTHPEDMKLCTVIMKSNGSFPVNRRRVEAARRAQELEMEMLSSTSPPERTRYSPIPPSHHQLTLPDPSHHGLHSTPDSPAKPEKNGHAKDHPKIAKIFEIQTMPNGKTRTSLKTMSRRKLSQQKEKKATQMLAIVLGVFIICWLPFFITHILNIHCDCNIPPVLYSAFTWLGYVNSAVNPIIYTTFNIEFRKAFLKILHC

Compound	inhibition at 1 µM [1] [%]	inhibition at 1 µM [2] [%]	inhibition at 1 µM [3] [%]	inhibition at 1 µM [4] [%]	inhibition at 1 µM [5] [%]	inhibition at 1 µM [6] [%]	α1 [%] [7] [%]	inhibition at 1 µM [8] [%]	D2 [%] [1] [%]	D3 [%] [2] [%]	5-HT1A [%] [3] [%]	5-HT2A [%] [4] [%]	5-HT6 [%] [5] [%]	5-HT7 [%] [6] [%]	SERT [%] [8] [%]
O=S(=O)(NCC1CCN(CCOc2nsc3ccccc23)C1)c1ccc2ccccc2c1 (centres unmarked) [Compound 44, N-[[1-[2-(1,2-Benzothiazol-3-yloxy)ethyl]pyrrolidin-3-yl]methyl]naphthalene-2-sulphonamide]	76	52	62	78	81	68	46	25	–	–	–	–	–	–	–
Cc1c(S(=O)(=O)NCC2CN(CCOc3cccc4ccccc34)C2)sc2ccc(Cl)cc12 [Compound 167, 5-Chloro-3-methyl-N-[[1-[2-(1-naphthyloxy)ethyl]azetidin-3-yl]methyl]benzothiophene-2-sulphonamide]	60	97	75	95	94	90	3	31	–	–	–	–	–	–	–
O=S(=O)(NCC1CCN(CCCc2noc3cc(F)ccc23)CC1)c1ccc2ccccc2c1 [Compound 38, N-[[1-[3-(6-Fluoro-1,2-benzoxazol-3-yl)propyl]-4-piperidine]methyl]-naphthalene-2-sulphonamide]	–	–	–	–	–	–	98	–	77	64	25	82	104	94	17
O=S(=O)(NC1CCN(CCCc2c[nH]c3ccc(Cl)cc23)C1)c1ccc(F)cc1 (centres unmarked) [Compound 83, N-[1-[3-(5-Chloro-1H-indol-3-yl)propyl]pyrrolidin-3-yl]-4-fluoro-benzenesulphonamide]	44	76	104	82	84	86	23	78	–	–	–	–	–	–	–
O=S(=O)(NCC1CCN(CCOc2cccc3c2OCCO3)C1)c1ccc(Cl)c(Cl)c1 (centres unmarked) [Compound 301, 3,4-Dichloro-N-[[1-[2-(2,3-dihydro-1,4-benzodioxin-5-yloxy)ethyl]-pyrrolidin-3-yl]methyl]benzenesulphonamide]	-22	34	96	81	61	98	46	38	–	–	–	–	–	–	–
O=S(=O)(NC1CN(CCOc2cccc3c2OCCO3)C1)c1cccc(Cl)c1 [Compound 91, 3-Chloro-N-[1-[2-(2,3-dihydro-1,4-benzodioxan-8-yloxy)ethyl]azetidin-3-yl]benzenesulphonamide]	–	–	–	–	–	–	−15	–	15	−8	88	47	−20	91	−4
O=S(=O)(NCC1CN(CCOc2cccc3c2OCCO3)C1)c1ccc2ccccc2c1 [Compound 177, N-[[1-[2-(2,3-Dihydro-1,4-benzodioxin-5-yloxy)ethyl]azetidin-3-yl]methyl]-naphthalene-2-sulphonamide]	13	42	97	66	44	88	55	25	–	–	–	–	–	–	–
O=S(=O)(NCC1CN(CCOc2cccc3c2OCCO3)C1)c1ccc(F)cc1 [Compound 182, N-[[1-[2-(2,3-Dihydro-1,4-benzodioxin-5-yloxy)ethyl]azetidin-3-yl]methyl]-4-fluoro-benzenesulphonamide]	33	45	63	61	31	95	78	-7	–	–	–	–	–	–	–
N-[1-[3-(6-Fluoro-1,2-benzoxazol-3-yl)propyl]pyrrolidin-3-yl]benzene-sulphonamide [Compound 6]	–	–	–	–	–	–	98	–	70	8	14	77	44	83	18
O=S(=O)(NCC1CCN(CCOc2cccc3ccccc23)C1)c1cccc(O)c1 (centres unmarked) [Compound 123, 3-Hydroxy-N-[[1-[2-(1-naphthyloxy)ethyl]pyrrolidin-3-yl]methyl]-benzenesulphonamide]	38	86	99	64	72	88	43	83	–	–	–	–	–	–	–
O=S(=O)(NCC1CCN(CCOc2nsc3ccccc23)C1)c1cccc(O)c1 (centres unmarked) [Compound 43, N-[[1-[2-(1,2-Benzothiazol-3-yloxy)ethyl]pyrrolidin-3-yl]methyl]-3-hydroxy-benzenesulphonamide]	55	29	83	81	87	71	68	-7	–	–	–	–	–	–	–
Cc1c(S(=O)(=O)NCC2CN(CCOc3cccc4c3OCCO4)C2)sc2ccc(Cl)cc12 [Compound 175, 5-Chloro-N-[[1-[2-(2,3-dihydro-1,4-benzodioxin-5-yloxy)ethyl]azetidin-3-yl]methyl]-3-methyl-benzothiophene-2-sulphonamide]	68	78	75	105	95	92	50	19	–	–	–	–	–	–	–
O=S(=O)(NC1CCN(CCCc2noc3cc(F)ccc23)C1)c1ccc(-c2ccccc2)cc1 (centres unmarked) [Compound 195, N-[1-[3-(6-Fluoro-1,2-benzoxazol-3-yl)propyl]pyrrolidin-3-yl]-4-phenyl-benzenesulphonamide]	93	82	47	101	86	86	79	7	–	–	–	–	–	–	–
N-[1-[3-(6-Fluoro-1,2-benzoxazol-3-yl)propyl]pyrrolidin-3-yl]-1,3-benzothiazole-4-sulphonamide [Compound 31]	–	–	–	–	–	–	100	–	87	27	58	84	76	89	36
O=S(=O)(NC1CCN(CCCc2noc3cc(F)ccc23)C1)c1cccc(Cl)c1 (centres unmarked) [Compound 9, 3-Chloro-N-[1-[3-(6-fluoro-1,2-benzoxazol-3-yl)propyl]pyrrolidin-3-yl]benzenesulphonamide]	88	30	12	95	75	90	83	2	–	–	–	–	–	–	–
O=S(=O)(NC1CCN(CCOc2nsc3ccccc23)CC1)c1ccc2ccccc2c1 [Compound 40, N-[1-[2-(1,2-Benzothiazol-3-yloxy)ethyl]-4-piperidine]naphthalene-2-sulphonamide]	–	–	–	–	–	–	12	–	49	39	68	102	72	85	−5
